In US12030878B2 (BRISTOL-MYERS SQUIBB COMPANY, priority 2017, dated 2024):
pIC50: −log10 of the molar value.

Key:
Assay type in all cases: cell-based
human TLR7 = biological target: T1, human TLR7 (Homo sapiens, UniProt Q9NYK1); assay: TLR7 inhibition reporter assay (HEK-Blue SEAP); details: HEK-Blue cells overexpressing human TLR7, stimulated with gardiquimod 7.5 μM, 22 hour incubation
T1 construct: host or cells: HEK-Blue cells
T1 sequence (Q9NYK1 27-1049): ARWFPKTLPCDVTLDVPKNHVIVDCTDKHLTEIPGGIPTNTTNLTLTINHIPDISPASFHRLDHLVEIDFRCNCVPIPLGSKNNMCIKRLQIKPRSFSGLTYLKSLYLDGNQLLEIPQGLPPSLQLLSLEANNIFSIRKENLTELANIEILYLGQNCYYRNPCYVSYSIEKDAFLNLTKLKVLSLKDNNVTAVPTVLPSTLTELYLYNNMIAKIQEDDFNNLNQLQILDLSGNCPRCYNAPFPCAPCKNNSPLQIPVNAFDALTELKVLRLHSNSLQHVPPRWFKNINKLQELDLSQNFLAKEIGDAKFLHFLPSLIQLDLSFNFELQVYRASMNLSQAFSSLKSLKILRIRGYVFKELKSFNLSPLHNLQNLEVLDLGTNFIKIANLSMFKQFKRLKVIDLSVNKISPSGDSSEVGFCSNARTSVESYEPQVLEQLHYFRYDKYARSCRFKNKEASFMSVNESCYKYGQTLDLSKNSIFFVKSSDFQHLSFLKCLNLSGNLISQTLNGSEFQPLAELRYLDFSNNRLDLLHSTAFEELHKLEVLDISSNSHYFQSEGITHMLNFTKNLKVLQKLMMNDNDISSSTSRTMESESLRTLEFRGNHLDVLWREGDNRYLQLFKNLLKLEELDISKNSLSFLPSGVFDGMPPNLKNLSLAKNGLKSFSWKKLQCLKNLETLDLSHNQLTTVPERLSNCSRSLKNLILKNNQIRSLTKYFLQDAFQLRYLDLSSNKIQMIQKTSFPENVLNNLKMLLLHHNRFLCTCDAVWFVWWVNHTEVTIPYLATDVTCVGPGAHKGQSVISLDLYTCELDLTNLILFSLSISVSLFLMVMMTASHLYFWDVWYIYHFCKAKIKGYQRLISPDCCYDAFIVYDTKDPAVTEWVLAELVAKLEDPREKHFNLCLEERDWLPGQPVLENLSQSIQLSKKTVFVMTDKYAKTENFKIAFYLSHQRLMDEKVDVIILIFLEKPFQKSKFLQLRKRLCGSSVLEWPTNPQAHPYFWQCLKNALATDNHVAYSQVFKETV
Protocol: (§1) TLR7/8/9 Inhibition Reporter Assays
(§2) HEK-Blue™-cells (Invivogen) overexpressing human TLR7, TLR8 or TLR9 receptors were used for screening inhibitors of these receptors using an inducible SEAP (secreted embryonic alkaline phosphatase) reporter gene under the control of the IFN-β minimal promoter fused to five NF-κB and AP-1-binding sites. Briefly, cells are seeded into Greiner 384 well plates (15000 cells per well for TLR7, 20.000 for TLR8 and 25,000 for TLR9) and then treated with test compounds in DMSO to yield a final dose response concentration range of 0.05 nM-50 μM. After a 30 minute compound pre-treatment at room temperature, the cells are then stimulated with a TLR7 ligand (gardiquimod at a final concentration of 7.5 μM), TLR8 ligand (R848 at a final concentration of 15.9 μM) or TLR9 ligand (ODN2006 at a final concentration of 5 nM) to activate NF-κB and AP-1 which induce the production of SEAP. After a 22 hour incubation at 37° C., 5% CO2, SEAP levels are determined with the addition of HEK-Blue™ Detection reagent (Invivogen), a cell culture medium that allows for detection of SEAP, according to manufacturer's specifications. The percent inhibition is determined as the % reduction in the HEK-Blue signal present in wells treated with agonist plus DMSO alone compared to wells treated with a known inhibitor.

human TLR8 = biological target: T2, human TLR8 (Homo sapiens, UniProt Q9NR97); assay: TLR8 inhibition reporter assay (HEK-Blue SEAP); details: HEK-Blue cells overexpressing human TLR8, stimulated with R848 15.9 μM, 22 hour incubation
T2 construct: host or cells: HEK-Blue cells
T2 sequence (Q9NR97 27-1041): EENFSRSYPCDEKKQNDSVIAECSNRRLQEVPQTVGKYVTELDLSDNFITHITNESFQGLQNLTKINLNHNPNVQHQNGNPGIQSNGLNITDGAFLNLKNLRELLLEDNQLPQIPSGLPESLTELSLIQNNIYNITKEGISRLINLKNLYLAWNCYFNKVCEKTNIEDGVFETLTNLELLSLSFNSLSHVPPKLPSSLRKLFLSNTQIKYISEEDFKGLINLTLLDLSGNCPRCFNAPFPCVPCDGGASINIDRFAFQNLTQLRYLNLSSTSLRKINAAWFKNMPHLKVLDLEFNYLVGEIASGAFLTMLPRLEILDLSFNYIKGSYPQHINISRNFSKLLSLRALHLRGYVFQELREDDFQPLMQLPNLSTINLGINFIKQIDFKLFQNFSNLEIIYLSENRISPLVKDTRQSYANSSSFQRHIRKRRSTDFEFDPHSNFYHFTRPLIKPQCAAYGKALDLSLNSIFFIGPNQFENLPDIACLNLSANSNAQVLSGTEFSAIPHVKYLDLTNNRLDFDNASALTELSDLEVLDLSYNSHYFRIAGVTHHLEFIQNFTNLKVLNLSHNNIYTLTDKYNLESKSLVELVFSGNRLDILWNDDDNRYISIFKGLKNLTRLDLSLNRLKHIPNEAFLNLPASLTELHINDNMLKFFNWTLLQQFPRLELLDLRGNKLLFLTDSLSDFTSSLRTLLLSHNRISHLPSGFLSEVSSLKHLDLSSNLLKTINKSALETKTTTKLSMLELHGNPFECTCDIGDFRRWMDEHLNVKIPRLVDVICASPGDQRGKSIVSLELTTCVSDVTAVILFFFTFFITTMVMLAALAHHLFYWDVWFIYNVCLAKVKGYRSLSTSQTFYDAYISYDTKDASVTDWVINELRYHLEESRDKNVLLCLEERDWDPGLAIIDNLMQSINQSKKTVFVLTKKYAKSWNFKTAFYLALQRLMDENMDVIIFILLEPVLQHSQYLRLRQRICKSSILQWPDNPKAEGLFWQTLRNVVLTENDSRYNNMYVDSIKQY
Protocol: as §1, §2

human TLR9 = biological target: T3, human TLR9 (Homo sapiens, UniProt Q9NR96); assay: TLR9 inhibition reporter assay (HEK-Blue SEAP); details: HEK-Blue cells overexpressing human TLR9, stimulated with ODN2006 5 nM, 22 hour incubation
T3 construct: host or cells: HEK-Blue cells
T3 sequence (Q9NR96 26-1032): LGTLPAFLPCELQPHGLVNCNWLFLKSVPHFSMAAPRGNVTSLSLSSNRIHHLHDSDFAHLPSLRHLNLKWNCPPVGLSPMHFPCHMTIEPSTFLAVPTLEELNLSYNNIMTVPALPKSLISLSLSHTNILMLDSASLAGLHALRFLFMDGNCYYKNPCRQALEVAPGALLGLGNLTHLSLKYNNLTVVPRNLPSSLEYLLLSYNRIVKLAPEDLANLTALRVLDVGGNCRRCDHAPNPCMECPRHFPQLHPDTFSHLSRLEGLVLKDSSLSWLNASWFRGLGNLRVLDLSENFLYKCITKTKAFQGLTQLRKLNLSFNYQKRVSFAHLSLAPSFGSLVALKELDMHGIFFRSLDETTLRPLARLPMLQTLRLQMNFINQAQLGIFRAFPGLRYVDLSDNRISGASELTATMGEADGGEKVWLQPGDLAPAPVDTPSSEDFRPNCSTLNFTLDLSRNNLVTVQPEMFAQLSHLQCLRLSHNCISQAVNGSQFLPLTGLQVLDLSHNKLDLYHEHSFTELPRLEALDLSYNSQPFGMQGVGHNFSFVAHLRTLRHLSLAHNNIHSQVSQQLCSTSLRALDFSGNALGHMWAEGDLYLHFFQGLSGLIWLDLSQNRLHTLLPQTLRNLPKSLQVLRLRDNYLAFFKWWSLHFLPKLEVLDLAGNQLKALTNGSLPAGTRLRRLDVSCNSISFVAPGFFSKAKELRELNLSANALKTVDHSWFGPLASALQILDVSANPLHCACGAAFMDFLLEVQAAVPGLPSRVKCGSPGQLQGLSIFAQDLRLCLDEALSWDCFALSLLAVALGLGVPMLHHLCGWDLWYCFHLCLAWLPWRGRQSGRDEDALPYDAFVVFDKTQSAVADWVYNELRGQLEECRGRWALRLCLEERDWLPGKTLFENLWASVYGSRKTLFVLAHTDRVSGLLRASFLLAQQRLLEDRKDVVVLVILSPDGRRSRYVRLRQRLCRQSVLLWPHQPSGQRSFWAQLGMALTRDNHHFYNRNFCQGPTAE
Protocol: as §1, §2

Row | Structure (SMILES) | pIC50 (human TLR7) | pIC50 (human TLR8) | pIC50 (human TLR9)
1 | COc1ccc(-c2[nH]c3ccc(OCC(=O)N[C@@H]4CCCNC4)cc3c2C(C)C)cc1OC [Example 137, (R)-2-((2-(3,4-dimethoxyphenyl)-3-isopropyl-1H-indol-5-yl)oxy)-N-(piperidin-3-yl)acetamide] | 6.85 | 8.04 | 5.67
2 | COCCN1CCC(COc2ccc3[nH]c(-c4cc(C)nc(C)c4)c(C(C)C)c3c2)CC1 [Example 73, 2-(2,6-dimethylpyridin-4-yl)-3-isopropyl-5-((1-(2-methoxyethyl)piperidin-4-yl)methoxy)-1H-indole] | 7.87 | 8.28 | 6.20
3 | Cc1cc(-c2[nH]c3ccc(OCC4CCCN(CC(C)(C)O)C4)cc3c2C(C)C)cc(C)n1 (stereo not drawn) [Example 23, 1-(3-(((2-(2,6-dimethylpyridin-4-yl)-3-isopropyl-1H-indol-5-yl)oxy)methyl)piperidin-1-yl)-2-methylpropan-2-ol] | 8.02 | 8.36 | 6.25
4 | COc1ccc(-c2[nH]c3ccc(OCC(=O)NC4CCC(N)CC4)cc3c2C(C)C)cc1OC (stereo not drawn) [Example 131, N-(4-aminocyclohexyl)-2-((2-(3,4-dimethoxyphenyl)-3-isopropyl-1H-indol-5-yl)oxy) acetamide] | 6.53 | 7.74 | 6.04
5 | Cc1cc(-c2[nH]c3ccc(OCC4CCN(C)CC4)cc3c2C(C)C)ccn1 [Example 188, 3-isopropyl-5-((1-methylpiperidin-4-yl)methoxy)-2-(2-methylpyridin-4-yl)-1H-indole] | 7.35 | 8.68 | 5.81
6 | COc1ccc(-c2[nH]c3ccc(OCC(=O)N[C@@H]4CCCC[C@H]4N)cc3c2C(C)C)cc1OC [Example 130, N-((1R,2R)-2-aminocyclohexyl)-2-((2-(3,4-dimethoxyphenyl)-3-isopropyl-1H-indol-5-yl)oxy)acetamide] | 6.40 | 7.73 | 5.69
7 | CNCCOc1ccc2[nH]c(-c3ccnc(C)c3)c(C(C)C)c2c1 [Example 172, 2-((3-isopropyl-2-(2-methylpyridin-4-yl)-1H-indol-5-yl)oxy)-N-methylethan-1-amine] | 6.93 | 7.90 | 5.51
8 | Cc1c(-c2[nH]c3ccc(OC4CCN(CC(=O)N(C)C)CC4)cc3c2C(C)C)cn2cnnc2c1C [Example 90, 2-(4-((2-(7,8-dimethyl-[1,2,4]triazolo[4,3-a]pyridin-6-yl)-3-isopropyl-1H-indol-5-yl)oxy)piperidin-1-yl)-N,N-dimethylacetamide] | 8.08 | 7.88 | 4.89

Compounds with a higher pIC50 (human TLR7), results first:

Row | pIC50 (human TLR7) | pIC50 (human TLR8) | pIC50 (human TLR9) | Structure (SMILES)
9 | 8.12 | 7.78 | 5.16 | Cc1c(-c2[nH]c3ccc(OCC4CCN(CC(=O)N(C)C)CC4)cc3c2C(C)C)cn2cnnc2c1C [Example 89, 2-(4-(((2-(7,8-dimethyl-[1,2,4]triazolo[4,3-a]pyridin-6-yl)-3-isopropyl-1H-indol-5-yl)oxy)methyl)piperidin-1-yl)-N,N-dimethylacetamide]
10 | 8.21 | 8.24 | 5.11 | Cc1c(-c2[nH]c3ccc(OCC4CCN(C5COC5)CC4)cc3c2C(C)C)cn2cnnc2c1C [Example 52, 6-(3-isopropyl-5-((1-(oxetan-3-yl)piperidin-4-yl)methoxy)-1H-indol-2-yl)-7,8-dimethyl-[1,2,4]triazolo[4,3-a]pyridine]
11 | 9.22 | 8.80 | 6.19 | Cc1cc(-c2[nH]c3ccc(OC4CCNCC4)cc3c2C(C)C)cn2ncnc12 [Example 10, 6-(3-isopropyl-5-(piperidin-4-yloxy)-1H-indol-2-yl)-8-methyl-[1,2,4]triazolo[1,5-a] pyridine]
12 | 9.70 | 9.40 | 6.46 | Cc1cc(-c2[nH]c3ccc(OCC4CCN(C(C)C)CC4)cc3c2C(C)C)cn2ncnc12 [Example 42, 6-(3-isopropyl-5-((1-isopropylpiperidin-4-yl)methoxy)-1H-indol-2-yl)-8-methyl-[1,2,4]triazolo[1,5-a]pyridine]
13 | 9.70 | 9.70 | 5.98 | CCCN1CCC(Oc2ccc3[nH]c(-c4cc(OC)c5ncnn5c4)c(C(C)C)c3c2)CC1 [Example 67, 6-(3-isopropyl-5-((1-propylpiperidin-4-yl)oxy)-1H-indol-2-yl)-8-methoxy-[1,2,4]triazolo[1,5-a]pyridine]
